Experimental data as given in ChEMBL document CHEMBL3576789, “Origins of the Quinolone Class of Antibacterials: An Expanded "Discovery Story"” (2015).
Converted amounts (≈) assume the structure as drawn.

Assays:
Proteus vulgaris = assay: Antimicrobial activity against Proteus vulgaris HX19; assay type: functional
Staphylococcus aureus [1] = assay: Antimicrobial activity against Staphylococcus aureus 209P; assay type: functional
Pseudomonas aeruginosa [2] = assay: Antimicrobial activity against Pseudomonas aeruginosa TU408; assay type: functional
Escherichia coli [3] = assay: Antimicrobial activity against Escherichia coli NIHJ JC2; assay type: functional
Staphylococcus aureus [4] = assay: Antimicrobial activity against Staphylococcus aureus 209p JC1; assay type: functional
Escherichia coli [5] = assay: Antimicrobial activity against Escherichia coli NIHJ; assay type: functional
Pseudomonas aeruginosa [6] = assay: Antimicrobial activity against Pseudomonas aeruginosa 104; assay type: functional
Klebsiella pneumoniae [7] = assay: Antimicrobial activity against Klebsiella pneumoniae PCI602; assay type: functional
Salmonella typhi = assay: Antimicrobial activity against Salmonella typhi T58; assay type: functional, Salmonella enterica subsp. enterica serovar Typhi; settings: Salmonella enterica
Klebsiella pneumoniae [8] = assay: Antimicrobial activity against Klebsiella pneumoniae 602; assay type: functional
Proteus mirabilis = assay: Antimicrobial activity against Proteus mirabilis GN2425; assay type: functional

Row | Compound | MIC (Proteus vulgaris) [µg/mL] | MIC (Staphylococcus aureus [1]) [µg/mL] | MIC (Pseudomonas aeruginosa [2]) [µg/mL] | MIC (Escherichia coli [3]) [µg/mL] | MIC (Staphylococcus aureus [4]) [µg/mL] | MIC (Escherichia coli [5]) [µg/mL] | MIC (Pseudomonas aeruginosa [6]) [µg/mL] | MIC (Klebsiella pneumoniae [7]) [µg/mL] | MIC (Salmonella typhi) [µg/mL] | MIC (Klebsiella pneumoniae [8]) [µg/mL] | MIC (Proteus mirabilis) [µg/mL]
1 | CCn1cc(C(=O)O)c(=O)c2ccc(C)cc21 | 12.5 (≈ 54.1 µM) | 200 (≈ 865 µM) | > 50 | 6.25 (≈ 27 µM) | > 50 | 6.25 (≈ 27 µM) | > 200 | 6.25 (≈ 27 µM) | 12.5 (≈ 54.1 µM) | 25 (≈ 108 µM) | 12.5 (≈ 54.1 µM)
2 | CCn1cc(C(=O)O)c(=O)c2ccc(C)nc21 [NALIDIXIC ACID] | 1.56 (≈ 6.72 µM) | 100 (≈ 431 µM) | > 50 | 6.25 (≈ 26.9 µM) | > 50 | 3.13 (≈ 13.5 µM) | 200 (≈ 861 µM) | 6.25 (≈ 26.9 µM) | 6.25 (≈ 26.9 µM) | 6.25 (≈ 26.9 µM) | 12.5 (≈ 53.8 µM)
3 | CCn1cc(C(=O)O)c(=O)c2ccc(Cl)cc21 | 25 (≈ 99.3 µM) | 50 (≈ 199 µM) |  |  |  | 25 (≈ 99.3 µM) | 200 (≈ 795 µM) |  |  | 25 (≈ 99.3 µM) | 12.5 (≈ 49.7 µM)
